Among the data in ChEMBL document CHEMBL5370672, “Discovery of Orally Bioavailable Phthalazinone Analogues as an ENPP1 Inhibitor for STING-Mediated Cancer Immunotherapy” (J Med Chem, 2023) are IC50, fold change (FC) and Activity values, retold here.

Structures are written as SMILES. Activity calls are given as the source filed them. No cut-off for these calls is given here.

The target of assay [1] is T1, Ectonucleotide pyrophosphatase/phosphodiesterase family member 1 (Homo sapiens, UniProt P22413).
T1 sequence (P22413 whole entry): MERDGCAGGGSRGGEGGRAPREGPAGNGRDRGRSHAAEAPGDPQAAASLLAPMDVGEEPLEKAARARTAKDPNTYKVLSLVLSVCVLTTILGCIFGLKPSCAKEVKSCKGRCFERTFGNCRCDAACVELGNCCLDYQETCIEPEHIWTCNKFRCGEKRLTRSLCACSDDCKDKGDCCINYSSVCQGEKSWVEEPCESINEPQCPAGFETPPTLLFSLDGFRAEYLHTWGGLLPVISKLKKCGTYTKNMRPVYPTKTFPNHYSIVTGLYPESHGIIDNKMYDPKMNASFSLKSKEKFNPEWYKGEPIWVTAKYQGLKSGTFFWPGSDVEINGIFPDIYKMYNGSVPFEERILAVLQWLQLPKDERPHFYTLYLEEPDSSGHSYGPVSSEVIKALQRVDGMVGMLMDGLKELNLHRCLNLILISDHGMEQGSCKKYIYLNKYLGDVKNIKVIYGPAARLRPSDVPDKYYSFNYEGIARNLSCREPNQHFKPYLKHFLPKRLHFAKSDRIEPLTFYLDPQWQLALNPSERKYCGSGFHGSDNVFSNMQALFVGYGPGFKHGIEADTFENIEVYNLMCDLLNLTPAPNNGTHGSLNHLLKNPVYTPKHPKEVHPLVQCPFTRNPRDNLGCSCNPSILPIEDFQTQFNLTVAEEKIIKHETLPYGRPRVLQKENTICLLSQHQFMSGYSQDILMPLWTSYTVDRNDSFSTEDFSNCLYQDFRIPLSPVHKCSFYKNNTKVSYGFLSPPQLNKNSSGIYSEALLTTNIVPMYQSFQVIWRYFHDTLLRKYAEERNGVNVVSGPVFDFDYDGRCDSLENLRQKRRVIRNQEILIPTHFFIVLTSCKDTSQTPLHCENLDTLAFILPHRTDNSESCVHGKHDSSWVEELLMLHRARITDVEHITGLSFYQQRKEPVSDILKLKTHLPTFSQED
Description: Inhibition of recombinant human ENPP1 using cGAMP as substrate assessed as inhibition of cGAMP hydrolysis preincubated for 5 to 10 mins followed by substrate addition and measured after 90 mins by AMP-Glo reagent based luminescence plate reader analysis.

In assay [2] the target is Stimulator of interferon genes protein (Homo sapiens) (UniProt Q86WV6). Description: Activation of STING-mediated immune response in human HCT-116 cells transfected with ISRE reporter assessed as increase in cGAMP-induced ISRE activation by measuring fold change at 25 to 100 uM preincubated with compound for 1 hrs followed by cGAMP addition and measured after 48 hrs by luciferase reporter gene assay. The assay is classed as cell-based. To be noted: filed as activator, dose 25-100 µM, time 49.0 hrs.

Assay [3] shares this target. Briefly: Activation of STING-mediated immune response in human HCT-116 cells transfected with ISRE reporter assessed as increase in cGAMP-induced ISRE activation at 25 to 100 uM preincubated with compound for 1 hrs followed by cGAMP addition and measured after 48 hrs by luciferase reporter gene assay. The assay is classed as cell-based. To be noted: filed as activator, dose 25-100 µM, time 49.0 hrs.

Assay [4] has the same target. Briefly: Activation of STING-mediated immune response in human HCT-116 cells transfected with ISRE reporter assessed as increase in cGAMP-induced ISRE activation by measuring fold change at 100 uM preincubated with compound for 1 hrs followed by cGAMP addition and measured after 48 hrs by luciferase reporter gene assay. To be noted: filed as activator, time 49.0 hrs. The class given is cell-based.

Stimulator of interferon genes protein (Homo sapiens), sequence (Q86WV6 whole entry): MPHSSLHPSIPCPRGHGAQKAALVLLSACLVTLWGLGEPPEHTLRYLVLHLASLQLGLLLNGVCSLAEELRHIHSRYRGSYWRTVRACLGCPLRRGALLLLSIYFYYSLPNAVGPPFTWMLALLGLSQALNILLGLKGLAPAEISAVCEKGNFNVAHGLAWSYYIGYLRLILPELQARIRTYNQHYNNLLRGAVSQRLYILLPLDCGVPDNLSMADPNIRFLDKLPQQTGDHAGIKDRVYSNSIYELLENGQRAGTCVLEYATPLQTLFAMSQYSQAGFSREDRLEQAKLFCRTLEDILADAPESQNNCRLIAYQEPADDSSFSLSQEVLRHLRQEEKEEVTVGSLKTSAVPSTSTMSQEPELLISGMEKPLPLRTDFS

With `NS(=O)(=O)Nc1ccc(Cc2n[nH]c(=O)c3ccccc23)cc1`, the IC50 in assay [1] turned out to be 39 nM. For the same compound, the fold change (FC) in assay [2] worked out at 1.85. Turning to `NS(=O)(=O)NCC1CCN(c2n[nH]c(=O)c3ccccc23)CC1`, the IC50 in assay [1] turned out to be 441 nM. Still for that read-out and setting: the figure for `Cn1nc(-c2ccc(CCS(N)(=O)=O)cc2)c2ccccc2c1=O` is 1810 nM. Same read-out and setting: the value for `COc1cc2c(N3CCC(CNS(N)(=O)=O)CC3)nn(C)c(=O)c2cc1OC` was 454 nM. Turning to `COc1cc2c(Cc3ccc(N(C)S(N)(=O)=O)cc3)n[nH]c(=O)c2cc1OC`, the half-maximal inhibitory concentration (IC50) in assay [1] turned out to be 166 nM. Further, the result in assay [3] was Active. As to `NS(=O)(=O)NCc1ccc(-c2n[nH]c(=O)c3ccccc23)cc1C(F)(F)F`, the half-maximal inhibitory concentration (IC50) in assay [1] was 377 nM. Take `COc1cc2c(Cc3ccc(N(C)S(N)(=O)=O)cc3)nn(C)c(=O)c2cc1OC`: the IC50 in assay [1] stood at 247 nM. In assay [3], the outcome was Active.

`COc1cc2c(Cc3ccc(NS(N)(=O)=O)cc3)nn(C)c(=O)c2cc1OC`: the IC50 in assay [1] was found to be 118 nM. Also, the outcome in assay [3] was Active.

On to `COc1ccc2c(=O)n(C)nc(-c3ccc(CNS(N)(=O)=O)cc3)c2c1`, for which the IC50 in assay [1] was found to be 1310 nM. Turning to `NS(=O)(=O)Nc1ccc(Cc2n[nH]c(=O)c3ccccc23)c(F)c1`, the concentration for half-maximal inhibition (IC50) in assay [1] is 273 nM. Besides, in assay [3], the outcome was Active. On to `Cn1nc(-c2ccc3c(c2)CCN(S(N)(=O)=O)C3)c2ccccc2c1=O`, for which the IC50 in assay [1] was 2220 nM. On the same count and under the same terms, the figure for `NS(=O)(=O)Nc1ccc(Cc2n[nH]c(=O)c3ccccc23)cc1C(F)(F)F` is 2190 nM. For the compound `NS(=O)(=O)NCc1ccc(-c2nn(Cc3ccccc3)c(=O)c3ccccc23)cc1`, in assay [1], the IC50 came out at 1450 nM. In the case of `COc1cc2c(-c3ccc(CNS(N)(=O)=O)cc3)n[nH]c(=O)c2cc1OC`, the 50% inhibitory concentration (IC50) in assay [1] turned out to be 37 nM. Moreover, the fold change (FC) in assay [4] was 1.07. For the compound `COc1cc2c(Cc3ccc4c(c3)CCN4S(N)(=O)=O)nn(C)c(=O)c2cc1OC`, the half-inhibitory concentration (IC50) in assay [1] came to 207 nM. In addition, in assay [2], the fold change (FC) amounted to 3.23. As to `CN(c1ccc(Cc2n[nH]c(=O)c3ccccc23)cc1)S(N)(=O)=O`, the IC50 in assay [1] was 1140 nM. On the same count and under the same terms, the figure for `Cn1nc(N2CCC(CNS(N)(=O)=O)CC2)c2ccccc2c1=O` is 2450 nM. `COc1cc2c(Cc3ccc(NS(N)(=O)=O)cc3)n[nH]c(=O)c2cc1OC`: in assay [1], the IC50 is 69 nM. Also, the fold change (FC) in assay [2] was 2.49.

`NS(=O)(=O)NCc1ccc(-c2n[nH]c(=O)c3ccccc23)cc1`: in assay [1], the IC50 was 139 nM. The fold change (FC) in assay [4] turned out to be 1.71.

As for `Cn1nc(-c2ccc(CNS(N)(=O)=O)cc2)c2ccccc2c1=O`, the IC50 in assay [1] was found to be 286 nM. Besides, the fold change (FC) in assay [4] worked out at 1.75. On to `COc1cc2c(Cc3ccc4c(c3)CCN4S(N)(=O)=O)n[nH]c(=O)c2cc1OC`, for which the IC50 in assay [1] came to 210 nM. Further, in assay [2], the fold change (FC) worked out at 1.53. `COc1cc2c(N3CCC(CNS(N)(=O)=O)CC3)n[nH]c(=O)c2cc1OC`: in assay [1], the IC50 is 395 nM.

For the compound `NS(=O)(=O)Nc1ccc(Cc2n[nH]c(=O)c3ccccc23)c(C(F)(F)F)c1`, in assay [1], the 50% inhibitory concentration (IC50) is 1360 nM. On the same count and under the same terms, the value for `COc1ccc2c(-c3ccc(CNS(N)(=O)=O)cc3)n[nH]c(=O)c2c1` was 590 nM. Take `NS(=O)(=O)Nc1ccc(Cc2n[nH]c(=O)c3ccccc23)cc1F`: the IC50 in assay [1] was determined as 298 nM. Besides, the outcome in assay [3] was Active.

As for `NS(=O)(=O)NCc1ccc(-c2nn(-c3ccccc3)c(=O)c3ccccc23)cc1`, the IC50 in assay [1] turned out to be 1140 nM.
